Test results as given in PubChem BioAssay (NCI).
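Briefly, cells in 96-well plates were exposed to five compound concentrations for 48 h, and endpoints were estimated by linear interpolation. At the TGI there is no net growth.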

Columns and labels:
Assay in all cases: growth of human tumour cells (NCI), 48 h
[1] = test system: 786-0 renal
[2] = test system: A498 renal
[3] = test system: A549 NSCLC
[4] = test system: ACHN renal
[5] = test system: BT-549 breast
[6] = test system: CAKI-1 renal
[7] = test system: CCRF-CEM leukemia
[8] = test system: COLO 205 colon
[9] = test system: DU-145 prostate
[10] = test system: EKVX NSCLC
[11] = test system: HCC-2998 colon
[12] = test system: HCT-116 colon
[13] = test system: HCT-15 colon
[14] = test system: HL-60(TB) leukemia
[15] = test system: HOP-62 NSCLC
[16] = test system: HOP-92 NSCLC
[17] = test system: HS 578T breast
[18] = test system: HT29 colon
[19] = test system: IGROV1 ovarian
[20] = test system: K-562 leukemia
[21] = test system: KM12 colon
[22] = test system: LOX IMVI melanoma
[23] = test system: M14 melanoma
[24] = test system: MALME-3M melanoma
[25] = test system: MCF7 breast
[26] = test system: MDA-MB-231 breast
[27] = test system: MDA-MB-435
[28] = test system: MDA-N
[29] = test system: MOLT-4 leukemia
[30] = test system: NCI-H23 lung
[31] = test system: NCI-H460 lung
[32] = test system: NCI-H522 lung
[33] = test system: NCI/ADR-RES ovarian
[34] = test system: OVCAR-3 ovarian
[35] = test system: OVCAR-4 ovarian
[36] = test system: OVCAR-5 ovarian
[37] = test system: OVCAR-8 ovarian
[38] = test system: PC-3 prostate
[39] = test system: RPMI-8226 leukemia
[40] = test system: RXF 393 renal
[41] = test system: SF-268 CNS
[42] = test system: SF-295 CNS
[43] = test system: SF-539 CNS
[44] = test system: SK-MEL-2 melanoma
[45] = test system: SK-MEL-28 melanoma
[46] = test system: SK-MEL-5 melanoma
[47] = test system: SK-OV-3 ovarian
[48] = test system: SN12C renal
[49] = test system: SNB-19 CNS
[50] = test system: SNB-75 CNS
[51] = test system: SR leukemia
[52] = test system: SW-620 colon
[53] = test system: T-47D breast
[54] = test system: TK-10 renal
[55] = test system: U251 CNS
[56] = test system: UACC-257 melanoma
[57] = test system: UACC-62 melanoma
[58] = test system: UO-31 renal
[59] = test system: NCI-H226 lung

CC(=O)Nc1nnc(S(=O)(=O)NC(=S)Nc2ccc(Cl)cc2)s1
TGI [1]: > 100 µM | TGI [2]: > 100 µM | TGI [3]: > 100 µM | TGI [4]: > 100 µM | TGI [5]: > 100 µM | TGI [6]: > 100 µM | TGI [7]: > 100 µM | TGI [8]: > 100 µM | TGI [9]: > 100 µM | TGI [10]: > 100 µM | TGI [11]: > 100 µM | TGI [12]: > 100 µM | TGI [13]: > 100 µM | TGI [14]: > 100 µM | TGI [15]: > 100 µM | TGI [16]: > 100 µM | TGI [17]: > 100 µM | TGI [18]: > 100 µM | TGI [19]: > 100 µM | TGI [20]: > 100 µM | TGI [21]: > 100 µM | TGI [22]: > 100 µM | TGI [23]: > 100 µM | TGI [24]: > 100 µM | TGI [25]: > 100 µM | TGI [26]: > 100 µM | TGI [27]: > 100 µM | TGI [28]: > 100 µM | TGI [29]: > 100 µM | TGI [30]: > 100 µM | TGI [31]: > 100 µM | TGI [32]: > 100 µM | TGI [33]: > 100 µM | TGI [34]: > 100 µM | TGI [35]: > 100 µM | TGI [36]: > 100 µM | TGI [37]: > 100 µM | TGI [38]: > 100 µM | TGI [39]: > 100 µM | TGI [40]: > 100 µM | TGI [41]: > 100 µM | TGI [42]: > 100 µM | TGI [43]: > 100 µM | TGI [44]: > 100 µM | TGI [45]: > 100 µM | TGI [46]: > 100 µM | TGI [47]: > 100 µM | TGI [48]: > 100 µM | TGI [49]: > 100 µM | TGI [50]: > 100 µM | TGI [51]: > 100 µM | TGI [52]: > 100 µM | TGI [53]: > 100 µM | TGI [54]: > 100 µM | TGI [55]: > 100 µM | TGI [56]: > 100 µM | TGI [57]: > 100 µM | TGI [58]: > 100 µM

O=c1oc2c(ccc3c(O)cccc32)c2c1CCCC2
TGI [1]: > 100 µM | TGI [2]: 80.8 µM | TGI [3]: > 100 µM | TGI [4]: > 100 µM | TGI [5]: 73.6 µM | TGI [6]: > 100 µM | TGI [7]: > 100 µM | TGI [8]: > 100 µM | TGI [9]: > 100 µM | TGI [10]: > 100 µM | TGI [11]: > 100 µM | TGI [12]: > 100 µM | TGI [14]: > 100 µM | TGI [15]: 48.4 µM | TGI [16]: 50.1 µM | TGI [17]: > 100 µM | TGI [18]: > 100 µM | TGI [19]: > 100 µM | TGI [20]: > 100 µM | TGI [21]: > 100 µM | TGI [22]: > 100 µM | TGI [23]: > 100 µM | TGI [24]: > 100 µM | TGI [25]: > 100 µM | TGI [26]: 47.1 µM | TGI [27]: > 100 µM | TGI [28]: > 100 µM | TGI [29]: > 100 µM | TGI [59]: > 100 µM | TGI [30]: > 100 µM | TGI [31]: > 100 µM | TGI [32]: > 100 µM | TGI [33]: > 100 µM | TGI [34]: > 100 µM | TGI [35]: > 100 µM | TGI [36]: > 100 µM | TGI [37]: > 100 µM | TGI [38]: > 100 µM | TGI [39]: > 100 µM | TGI [40]: 39.8 µM | TGI [41]: 40.8 µM | TGI [42]: 58 µM | TGI [43]: > 100 µM | TGI [44]: > 100 µM | TGI [45]: > 100 µM | TGI [46]: > 100 µM | TGI [48]: > 100 µM | TGI [49]: > 100 µM | TGI [50]: 19.9 µM | TGI [51]: > 100 µM | TGI [52]: > 100 µM | TGI [53]: > 100 µM | TGI [54]: > 100 µM | TGI [55]: 55.9 µM | TGI [56]: > 100 µM | TGI [57]: 27.2 µM | TGI [58]: > 100 µM
